The term MIC denotes the least concentration at which growth counts as inhibited. Usually IC50 stands for the concentration that gives 50% inhibition.

In one experiment the test system is Kocuria rhizophila. Briefly: Antimicrobial activity against Kocuria rhizophila ATCC9341 assessed as inhibition of bacterial growth incubated for 48 hrs by liquid microculture method. Format: functional.
Another experiment concerns Staphylococcus aureus. In words: Antimicrobial activity against Staphylococcus aureus FDA209P JC-1 assessed as inhibition of bacterial growth incubated for 48 hrs by liquid microculture method. Format: functional.
In the next experiment the test system is Escherichia coli. Briefly: Antimicrobial activity against Escherichia coli NIHJ JC-2 assessed as inhibition of bacterial growth incubated for 48 hrs by liquid microculture method. Format: functional.
In experiment [1] the test system is Agrobacterium tumefaciens. In words: Antimicrobial activity against Rhizobium radiobacter NBRC14554 assessed as inhibition of bacterial growth incubated for 48 hrs by liquid microculture method. It counts as functional.
Experiment [2] relates to Colletotrichum gloeosporioides. Briefly: Antimicrobial activity against Glomerella cingulata NBRC5907 assessed as inhibition of […] growth incubated for 48 hrs by liquid microculture method. It counts as functional.
For a further experiment, the system named is Trichophyton rubrum. Briefly: Antimicrobial activity against Trichophyton rubrum NBRC5467 assessed as inhibition of […] growth incubated for 48 hrs by liquid microculture method. It counts as functional.
The subject of another experiment is Candida albicans. In words: Antimicrobial activity against Candida albicans NBRC0197 assessed as inhibition of […] growth incubated for 48 hrs by liquid microculture method. Format: functional.
For a further experiment, the system named is P388. Briefly: Cytotoxicity against mouse P388 cells assessed as cell growth inhibition measured after 48 hrs by MTT assay. Particulars: P388, 48 h. Format: functional, cell-based.

Molecules are shown by their SMILES. Converted amounts (≈) assume the structure as drawn.

Consider `C/C=C/c1ccccc1C/C=C/C=C\Cc1cc(=O)c2ccccc2[nH]1`, for which the minimal inhibitory concentration (MIC) in the experiment on Kocuria rhizophila is 13 µg/mL (≈ 38.1 µM); in the experiment on Staphylococcus aureus it was 25 µg/mL (≈ 73.2 µM); in the experiment with Escherichia coli, > 100 µg/mL; in experiment [1] it was 50 µg/mL (≈ 146 µM); in experiment [2], 25 µg/mL (≈ 73.2 µM); in the experiment on Trichophyton rubrum, 13 µg/mL (≈ 38.1 µM). Further, in the experiment on Candida albicans, the minimum inhibitory concentration (MIC) was > 100 µg/mL. In addition, in the experiment on P388, the half-maximal inhibitory concentration (IC50) is 10 µM.
For the compound `C/C=C/c1ccccc1C/C=C/C=C\CC(=O)O`, the MIC is 13 µg/mL (≈ 53.6 µM) in the experiment on Kocuria rhizophila; 6.3 µg/mL (≈ 26 µM) with Staphylococcus aureus; > 100 µg/mL in the experiment on Escherichia coli; 25 µg/mL (≈ 103 µM) in experiment [1]; 6.3 µg/mL (≈ 26 µM) in experiment [2]; 13 µg/mL (≈ 53.6 µM) in the experiment with Trichophyton rubrum. Besides, the MIC in the experiment with Candida albicans was > 100 µg/mL. Further, the IC50 in the experiment with P388 was 1.2 µM.
With `C/C=C/c1ccccc1/C=C/C=C/C(O)Cc1cc(=O)c2ccccc2[nH]1` (racemic), the minimum inhibitory concentration (MIC) in the experiment with Kocuria rhizophila is 6.3 µg/mL (≈ 17.6 µM); with Staphylococcus aureus it was 13 µg/mL (≈ 36.4 µM); in the experiment on Escherichia coli, > 100 µg/mL; in experiment [1], 50 µg/mL (≈ 140 µM); in experiment [2], 13 µg/mL (≈ 36.4 µM); in the experiment on Trichophyton rubrum, 6.3 µg/mL (≈ 17.6 µM). In addition, the minimal inhibitory concentration (MIC) with Candida albicans was > 100 µg/mL. Besides, the half-maximal inhibitory concentration (IC50) with P388 turned out to be 7.3 µM.
Consider `C[C@@H]1[C@H](O)[C@@H](C)/C=C/C=C/C=C/C=C/C=C/C=C/C=C/[C@H](O[C@@H]2O[C@H](C)[C@@H](O)[C@H](N)[C@@H]2O)C[C@@H]2O[C@](O)(C[C@@H](O)C[C@@H](O)[C@H](O)CC[C@@H](O)C[C@@H](O)CC(=O)O[C@H]1C)C[C@H](O)[C@H]2C(=O)O` [AMPHOTERICIN B], for which the MIC in experiment [2] worked out at 1.3 µg/mL (≈ 1.41 µM); in the experiment with Trichophyton rubrum it was 0.78 µg/mL (≈ 0.844 µM); in the experiment with Candida albicans, 0.78 µg/mL (≈ 0.844 µM).
For the compound `COc1cccc2c1C(=O)c1c(O)c3c(c(O)c1C2=O)C[C@@](O)(C(=O)CO)C[C@@H]3O[C@H]1C[C@H](N)[C@H](O)[C@H](C)O1` [DOXORUBICIN], the IC50 in the experiment with P388 was determined as 0.08 µM.

For the origin of these results see ChEMBL document CHEMBL5120918, “Marinoquinolones and Marinobactoic Acid: Antimicrobial and Cytotoxic ortho-Dialkylbenzene-Class Metabolites Produced by a Marine Obligate Gammaproteobacterium of the Genus Marinobacterium” (J Nat Prod, 2022).
